In patent publication US9060541B2, “Sterilizer for foods” (Kawakami Co., Ltd., priority 2009, dated 2015):

Key:
Type in all cases: cell-based
Design in all cases: key: D: There is no sterilization effect.; C: There is a sterilization effect in step (1) but no sterilization effect in step (2).; B: There is a sterilization effect up to step (2) but no sterilization effect in step (3).; A: There is a sterilization effect up to step (3)
[1] = system: Enteropathogenic Escherichia coli O55 KX-E59; assay: Comparison test of sterilization effects against various food poisoning microbes
Escherichia coli (NIHJ) = assay: Sterilization effect determination test (Fujimoto's modified method of the Kelsey-Sykes method); details: Table 1; compositions of calcinated calcium and ethanol, water remainder; 20° C.; steps (1)-(3); listed as Ethanol 30 wt %
[2] = system: Enteroaggregative Escherichia coli O111:H21 K-H-6; assay: Comparison test of sterilization effects against various food poisoning microbes
[3] = system: Vibrio parahaemolyticus AQ3815; assay: as above
[4] = system: Staphylococcus aureus (209P); assay: Sterilization effect determination test (Fujimoto's modified method of the Kelsey-Sykes method); details: Table 2; compositions of calcinated calcium and ethanol, water remainder; 20° C.; steps (1)-(3); listed as Ethanol 30 wt %
[5] = Table 7, test microbe solution without yeast extract
[6] = Table 8, yeast extract 4 weight % blended in test microbe solution

SMILES: CCO [EtOH 30%, ethanol]
- Sterilization effect [1, 5]: D
- Sterilization effect [1, 6]: D
- Sterilization effect (Escherichia coli (NIHJ)): C
- Sterilization effect [2, 5]: D
- Sterilization effect [2, 6]: D
- Sterilization effect [3, 5]: B
- Sterilization effect [3, 6]: C
- Sterilization effect [4]: D

SMILES: [Na+].[O-]Cl [S.H 150 ppm, sodium hypochlorite]
- Sterilization effect [1, 5]: A
- Sterilization effect [1, 6]: D
- Sterilization effect [2, 5]: A
- Sterilization effect [2, 6]: D
- Sterilization effect [3, 5]: A
- Sterilization effect [3, 6]: C
